The values that follow come from publication PMC6152666, “Five New Limonoids from Peels of Satsuma Orange (Citrus reticulata)” (Molecules : A Journal of Synthetic Chemistry and Natural …, 2017).

The subject of data set [1] is NO production in RAW264.7 mouse macrophages stimulated by lipopolysaccharide (LPS). The data set is described as follows: Inhibitory assay of NO production in LPS-stimulated RAW264.7 macrophages. Type of data set: cell-based. The settings on record: for activity at 1 µM / activity at 3 µM / activity at 10 µM / activity at 30 µM / IC50: Mus musculus, RAW264.7 + LPS 5 μg/mL, 24 h; for activity at 1 µM / activity at 3 µM / activity at 10 µM / activity at 30 µM: vehicle control = 100%, mean ± S.E., n=4; for activity at 1 µM / activity at 3 µM / activity at 10 µM: read-out: Inhibitory Ratio of NO %; for activity at 30 µM: read-out: Inhibitory Ratio of NO % (produced NO ratio). The text has this: Macrophages may be a potential therapeutic target for inflammatory diseases. Activated macrophages release pro-inflammatory mediators, such as NO, reactive oxygen species, interleukin-1β, tumor necrosis factor-α, and other inflammatory mediators, which play important roles in biological defense. However, the overexpression of these mediators had been implicated in diseases such as osteoarthritis, rheumatoid arthritis, and diabetes because the increased production of pro-inflammatory mediators induces severe or chronic inflammation. Isolated compounds (1–12), and N^G-monomethyl-L-arginine, acetate (L-NMMA), which is a NO synthase inhibitor and was used as a positive control, were evaluated for macrophage activation by the inhibitory assay of NO production in RAW264.7 mouse macrophages stimulated by lipopolysaccharide (LPS).
(§1) RAW264.7 cells were grown in D-MEM medium supplemented with 10% FBS and antibiotics (100 units/mL penicillin G sodium salt and 100 μg/mL streptomycin sulfate). Cells were incubated at 37 °C in a 5% CO2 humidified incubator.
An inhibitory assay of NO production was performed according to a method reported previously with slight modifications. Briefly, RAW264.7 cells (5 × 10^4 cells in 100 μL) were seeded into a 96-well microplate and incubated for 24 h. DMEM containing test samples (100 μL total volume, final concentration of 30, 10, 3, or 1 μM) dissolved in DMSO (final concentration 0.2%), and LPS (final concentration of 5 μg/mL), was added. After treatment for 24 h, the supernatant of culture medium was transferred to another 96-well microplate, and then 50 μL of 0.15% N-(1-naphtyl)ethylenediamine in H2O, and 1.5% sulfanilamide in 7.5% phosphoric acid were added. After incubation for 30 min, the absorbance of each well was read at 570 nm using a microplate reader. The optical density of vehicle control cells was assumed to be 100%.

The nature of data set [2]: Cytotoxicity assay (MTT) in RAW264.7 cells. The following applies: mouse, RAW264.7 cells, RAW264.7, MTT, 24 h, vehicle control = 100%, mean ± S.E., n=4, read-out: Cell Viability %. The class given is cell-based, mouse. Here is the method: as §1
(§2) Cytotoxicity assay was performed according to a method reported previously Briefly, RAW264.7 cells (5 × 10^4 cells in 100 μL) were seeded onto a 96-well microplate and incubated for 24 h. DMEM containing test samples (100 μL total volume, final concentration of 30, 10, 3, or 1 μM) dissolved in DMSO (final concentration 0.2%) was added. After treatment for 24 h, MTT solution was added. After a 3-h incubation, 20% sodium dodecyl sulfate in 0.1 M HCl was added to dissolve the formazan produced in the cells. The absorbance of each well was read at 570 nm using a microplate reader. The optical density of vehicle control cells was assumed to be 100%.

The subject of the next data set is RAW264.7 cells. The data set can be described thus: Cytotoxicity assay (MTT) in RAW264.7 cells. The following applies: RAW264.7, 1–30 μM. Type of data set: cell-based, mouse. As for the experimental part: as §1, §2

Entries after “also recorded” stand apart in the source; their conditions may differ. A value given as a limit tells only on which side of the number the result lay.

As to `COC1C=C([C@@H]2OC(=O)[C@H]3O[C@@]34[C@@]2(C)CC[C@@H]2[C@@]3(C)[C@@H](OC(C)=O)CC(=O)OC(C)(C)[C@@H]3CC(=O)[C@]24C)C(=O)O1` (stereo partly shown) [Compound 2, 21,23-dihydro-23-methoxy-21-oxonomilin], the melting point (usually the temperature, or range, at which the solid turns liquid) fell in the range of 208 to 210 °C. Also, in data set [1], the activity at 1 µM is 95.2 ± 1.6%, the activity at 3 µM was determined as 89.8 ± 2.1%, the activity at 10 µM stood at 80.4 ± 2.1% and the activity at 30 µM was found to be 39.3 ± 0.5%. Further, the concentration for half-maximal inhibition (IC50) (as a rule, the concentration at which inhibition is half-maximal) in data set [1] is 25.4 µM. For the same compound, in data set [1] (RAW264.7 + LPS, 1–30 μM), the “inhibitory effect on NO production (in words)” value is reported as “exhibited NO inhibitory activity”. In addition, in data set [2], the viability (commonly a read-out of living cells in per cent, often relative to untreated cells) at 24 h, 1 µM was 101%; the viability at 24 h, 3 µM was determined as 98.7%; the viability at 24 h, 10 µM came to 99.1%; the viability at 24 h, 30 µM turned out to be 94.5%. In addition, the “cytotoxicity (in words)” value with RAW264.7 cells is on record as “without cytotoxicity; also recorded: without cytotoxicities”.
On to `CC(=O)O[C@H]1CC(=O)OC(C)(C)[C@@H]2CC(=O)[C@]3(C)[C@H](CC[C@@]4(C)[C@H](C5=CC(=O)OC5O)OC(=O)[C@H]5O[C@]543)[C@@]12C` (stereo partly shown) [Compound 1, 21,23-dihydro-21-hydroxy-23-oxonomilin], for which the melting point fell in the range of 200 to 201 °C. In data set [1], the activity at 1 µM is 110 ± 2.8%, the activity at 3 µM is 111 ± 1.7%, the activity at 10 µM amounted to 105 ± 2.2% and the activity at 30 µM amounted to 107 ± 2.5%. For the same compound, in data set [1], the IC50 is over 30 µM. Also, in data set [2], the viability at 24 h, 1 µM was 99.1%; the viability at 24 h, 3 µM came out at 102%; the viability at 24 h, 10 µM was 104%; the viability at 24 h, 30 µM amounted to 99.3%.
